Experimental data taken from patent US10144715B2, “Piperazine derivatives as liver X receptor modulators” (priority 2014, dated 2018).
Read-outs that look alike come from different tables or passages of the source. Each block holds one molecule with its values, some of them ahead of it.

Experiments:
[1] = target: T1, Gal4 DNA binding domain fused to the LBD of LXRα in HEK293 cells (Homo sapiens (Human), UniProt Q13133); assay: LXR luciferase transcriptional reporter gene assay, agonist mode, LXRα; assay type: cell-based; conditions: for EC50: read-out: Cell LXRα EC50
LXR α LBD protein [2] = target: T2, LXR α LBD protein (Homo sapiens (Human), UniProt Q13133); assay: LXR α radioligand binding assay (SPA, competition with [3H]TO901317); conditions: read-out: LXRα Binding Ki
[3] = target: T1, Gal4 DNA binding domain fused to the LBD of LXRα in HEK293 cells; assay: LXR luciferase transcriptional reporter gene assay, antagonist mode (200 nM T0901317), LXRα; assay type: cell-based; conditions: for IC50: read-out: Cell LXRα IC50
LXR α LBD protein [4] = target: T2, LXR α LBD protein; assay: Human LXRα coactivator recruitment FRET assay, agonist mode; assay type: biochemical
Outline: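 LXRα- or LXRβ-LBD at 10 nM (2×) mixed with compound in DMSO, then fluorescein-SRC2-3 peptide 200 nM and Tb-anti-GST antibody 20 nM (4×) added; 2 h at rt. Time-resolved FRET read, 100 µs delay, 200 µs window; EC50 from four-parameter fit of percent control.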

[5] = target: T3, Gal4 DNA binding domain fused to the LBD of LXRβ in HEK293 cells (Homo sapiens (Human), UniProt P55055); assay: cell-based; assay type: cell-based
LXR β LBD protein = LXR β LBD protein (Homo sapiens (Human), UniProt P55055); assay: biochemical; assay type: binding; conditions: read-out: LXRβ Binding Ki
[6] = target: T3, Gal4 DNA binding domain fused to the LBD of LXRβ in HEK293 cells; assay: cell-based
[7] = antagonist mode, 200 nM T0901317, HEK293 reporter gene assay
[8] = Biological Test Example 3, agonist mode

T3 sequence (P55055 222-460 limits assumed): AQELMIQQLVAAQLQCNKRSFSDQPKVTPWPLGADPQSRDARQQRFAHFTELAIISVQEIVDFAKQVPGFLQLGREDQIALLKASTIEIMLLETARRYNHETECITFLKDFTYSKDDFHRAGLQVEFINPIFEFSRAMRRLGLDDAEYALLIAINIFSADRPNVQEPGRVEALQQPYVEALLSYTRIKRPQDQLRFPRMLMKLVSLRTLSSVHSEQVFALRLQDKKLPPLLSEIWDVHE
Chain of LXR β LBD protein (P55055 222-460 limits assumed): as above
T2 sequence (Q13133 209-447): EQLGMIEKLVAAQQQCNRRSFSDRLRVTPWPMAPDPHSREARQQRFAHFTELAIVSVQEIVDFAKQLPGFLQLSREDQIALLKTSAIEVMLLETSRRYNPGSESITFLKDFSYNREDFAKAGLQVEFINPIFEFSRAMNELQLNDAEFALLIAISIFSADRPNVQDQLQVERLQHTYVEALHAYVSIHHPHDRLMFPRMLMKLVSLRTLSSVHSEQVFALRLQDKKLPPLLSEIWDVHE
T1 sequence (Q13133 209-447): as above

Structure (SMILES): CS(=O)(=O)c1cccc(N2CCN(C[C@H]3CC[C@@H](C(F)F)CC3)[C@@H](c3ccccc3)C2)c1 (single isomer, unassigned) [Cpd No 48-17]
Cell LXRα efficacy [1]: 127 (39) %
EC50 ([1]; agonist mode): 127 nM
Ki (LXR α LBD protein [2]): 60 nM
IC50 [3, 7]: 1350 nM
EC50 (LXR α LBD protein [4]; agonist mode): 287 nM
FRET LXRα efficacy (LXR α LBD protein [4]; agonist mode): 36%

Structure (SMILES): CC(C)[C@@H]1CN(c2cccc(S(C)(=O)=O)c2)CCN1c1ncccn1 [7-2, (R)-2-(2-isopropyl-4-(3-(methylsulfonyl)phenyl)piperazin-1-yl)pyrimidine]
EC50 ([1]; agonist mode): > 20000 nM
IC50 [3, 7]: 5500 nM
EC50 (LXR α LBD protein [4]; agonist mode): 1030 nM
FRET LXRα efficacy (LXR α LBD protein [4]; agonist mode): 23%

Structure (SMILES): CC(C)[C@@H]1CN(c2ccc(F)c(S(C)(=O)=O)c2)CCN1c1nccc(OCC(F)(F)F)n1 [44-3, (R)-2-(4-(4-fluoro-3-(methylsulfonyl)phenyl)-2-isopropylpiperazin-1-yl)-4-(2,2,2-trifluoroethoxy)pyrimidine]
Cell LXRβ efficacy [5]: 91 (93) %
IC50 [5]: 91 nM
Ki (LXR β LBD protein): 67 nM
EC50 [6]: > 20000 nM

Structure (SMILES): CS(=O)(=O)c1cccc(N2CCN(C[C@H]3CC[C@H](C(F)F)CC3)[C@@H](c3ccccc3)C2)c1 (single isomer, unassigned) [48-19]
Cell LXRα efficacy [1]: 712 (25) %
EC50 [1]: 712 nM
Ki (LXR α LBD protein [2]): 313 nM
Cell LXRα efficacy [3]: 1630 (67) %
IC50 [3]: 1630 nM
EC50 (LXR α LBD protein [4]; agonist mode): 1880 nM
FRET LXRα efficacy (LXR α LBD protein [4]; agonist mode): 13%

Structure (SMILES): CC(C)COC(=O)N1CCN(c2cccc(S(C)(=O)=O)c2)C[C@H]1C(C)C [5-7, isobutyl (R)-2-isopropyl-4-(3-(methylsulfonyl)phenyl)piperazine-1-carboxylate]
Cell LXRα efficacy [1]: 1919 (44) %
EC50 ([1]; agonist mode): 1920 nM
IC50 [3, 7]: 5120 nM
EC50 (LXR α LBD protein [4]; agonist mode): 340 nM
FRET LXRα efficacy (LXR α LBD protein [4]; agonist mode): 58%

Structure (SMILES): CS(=O)(=O)c1cccc(N2CCN(Cc3ccc(C(F)(F)F)c(Cl)c3)C(C3CCCCC3)C2)c1 (stereo not shown) [46-27, 1-(3-chloro-4-(trifluoromethyl)benzyl)-2-cyclohexyl-4-(3-(methylsulfonyl)phenyl)piperazine]
Cell LXRα efficacy [1]: 1100 (77) %
EC50 ([1]; agonist mode): 1100 nM
IC50 [3, 7]: > 10000 nM
EC50 (LXR α LBD protein [4]; agonist mode): 157 nM
FRET LXRα efficacy (LXR α LBD protein [4]; agonist mode): 79%

Structure (SMILES): CC1(C)CCC(CN2CCN(c3cccc(S(C)(=O)=O)c3)C[C@@H]2c2ccccc2)CC1 [Cpd No 48-4, (S)-1-((4,4-dimethylcyclohexyl)methyl)-4-(3-(methylsulfonyl)phenyl)-2-phenylpiperazine]
Cell LXRα efficacy [1]: 279 (61) %
EC50 [1]: 279 nM
Ki (LXR α LBD protein [2]): 39 nM
Cell LXRα efficacy [3]: 6447 (79) %
IC50 [3]: 6450 nM
EC50 (LXR α LBD protein [4]; agonist mode): 301 nM
FRET LXRα efficacy (LXR α LBD protein [4]; agonist mode): 39%

Structure (SMILES): CC(C)[C@@H]1CN(c2cccc(S(C)(=O)=O)c2)CCN1c1ccnc(C(F)(F)F)n1 [7-50, (R)-4-(2-isopropyl-4-(3-(methylsulfonyl)phenyl)piperazin-1-yl)-2-(trifluoromethyl)pyrimidine]
Cell LXRα efficacy [1]: 2029 (50) %
EC50 ([1]; agonist mode): 2030 nM
Cell LXRα efficacy [3]: 4587 (78) %
IC50 [3, 7]: 4590 nM
EC50 (LXR α LBD protein [4]; agonist mode): 298 nM
FRET LXRα efficacy (LXR α LBD protein [4]; agonist mode): 59%

Structure (SMILES): Cc1nc(N2CCN(c3ccc(F)c(S(C)(=O)=O)c3)C[C@H]2C(C)C)ncc1F [7-23, (R)-5-fluoro-2-(4-(4-fluoro-3-(methylsulfonyl)phenyl)-2-isopropylpiperazin-1-yl)-4-methylpyrimidine]
Cell LXRα efficacy [1]: 1531 (52) %
EC50 ([1]; agonist mode): 1530 nM
IC50 [3, 7]: > 10000 nM
EC50 (LXR α LBD protein [4]; agonist mode): 1130 nM
FRET LXRα efficacy (LXR α LBD protein [4]; agonist mode): 73%

Cell LXRβ efficacy [5]: 667 (84) %
IC50 [5]: 667 nM
Ki (LXR β LBD protein): 123 nM
Cell LXRβ efficacy [6]: 244 (8) %
EC50 [6]: 244 nM
Structure (SMILES): CC(C)[C@@H]1CN(c2ccc(F)c(S(C)(=O)=O)c2)CCN1c1ncc(C(=O)N(C)C)c(C(F)(F)F)n1 [Cpd No 17-1, (R)-2-(4-(4-fluoro-3-(methylsulfonyl)phenyl)-2-isopropylpiperazin-1-yl)-N,N-dimethyl-4-(trifluoromethyl)pyrimidine-5-carboxamide]

Structure (SMILES): CC(C)[C@@H]1CN(c2ccc(F)c(S(C)(=O)=O)c2)CCN1c1ncc(CN(C)C)c(C(F)(F)F)n1 [15-3, (R)-1-(2-(4-(4-fluoro-3-(methylsulfonyl)phenyl)-2-isopropylpiperazin-1-yl)-4-(trifluoromethyl)pyrimidin-5-yl)-N,N-dimethylmethanamine]
IC50 [5]: 900 nM
Cell LXRβ efficacy [5, 7]: 900 (93) %
Cell LXRα efficacy [1]: 1144 (25) %
EC50 ([1]; agonist mode): 1140 nM
Ki (LXR β LBD protein): 47 nM
EC50 [6]: 74 nM
Cell LXRβ efficacy ([6]; agonist mode): 74 (17) %

Structure (SMILES): CC(C)[C@@H]1CN(c2ccc(C(N)=O)c(S(C)(=O)=O)c2)CCN1c1nccc(C(F)(F)F)n1 [4-2, (R)-4-(3-isopropyl-4-(4-(trifluoromethyl)pyrimidin-2-yl)piperazin-1-yl)-2-(methylsulfonyl)benzamide]
Cell LXRα efficacy [1]: 1172 (71) %
EC50 ([1]; agonist mode): 1170 nM
IC50 [3, 7]: > 10000 nM
EC50 (LXR α LBD protein [4]; agonist mode): 293 nM
FRET LXRα efficacy (LXR α LBD protein [4]; agonist mode): 87%

Structure (SMILES): CC(C)[C@@H]1CN(c2ccc(F)c(S(C)(=O)=O)c2)CCN1c1ncc(CN2CC(O)C2)c(C(F)(F)F)n1 [15-4, (R)-1-((2-(4-(4-fluoro-3-(methylsulfonyl)phenyl)-2-isopropylpiperazin-1-yl)-4-(trifluoromethyl)pyrimidin-5-yl)methyl)azetidin-3-ol]
IC50 [5]: 1440 nM
Cell LXRβ efficacy [5, 7]: 1438 (104) %
Cell LXRα efficacy [1]: 2838 (20) %
EC50 ([1]; agonist mode): 2840 nM
Ki (LXR β LBD protein): 100 nM
EC50 [6]: 182 nM
Cell LXRβ efficacy ([6]; agonist mode): 182 (13) %

Structure (SMILES): CS(=O)(=O)c1cccc(N2CCN(CC3CCN(CC(F)(F)F)CC3)[C@@H](c3ccccc3)C2)c1 (single isomer, unassigned) [48-52]
Cell LXRα efficacy [1]: 736 (30) %
EC50 ([1]; Biological Test Example 2, agonist mode): 736 nM
Cell LXRα efficacy [3]: 4773 (89) %
IC50 [3, 7]: 4770 nM
EC50 (LXR α LBD protein [4]; [8]): 1060 nM
FRET LXRα efficacy (LXR α LBD protein [4]; [8]): 32%

Structure (SMILES): CC(C)(C)OC(=O)N1CCN(c2cccc(S(C)(=O)=O)c2)C[C@H]1Cc1ccccc1 [1-8, tert-butyl (R)-2-benzyl-4-(3-(methylsulfonyl)phenyl)piperazine-1-carboxylate]
Cell LXRα efficacy [1]: 1146 (34) %
EC50 ([1]; agonist mode): 1150 nM
IC50 [3, 7]: 4710 nM
EC50 (LXR α LBD protein [4]; agonist mode): 105 nM
FRET LXRα efficacy (LXR α LBD protein [4]; agonist mode): 18%

Cell LXRα efficacy [1]: 760 (31) %
EC50 [1]: 760 nM
Cell LXRα efficacy [3]: 3946 (105) %
IC50 [3]: 3950 nM
EC50 (LXR α LBD protein [4]; agonist mode): 1520 nM
FRET LXRα efficacy (LXR α LBD protein [4]; agonist mode): 19%
Structure (SMILES): CS(=O)(=O)c1cccc(N2CCN(CC3CCC(O)(C(F)(F)F)CC3)[C@@H](c3ccccc3)C2)c1 (stereo partly drawn) [Cpd No 48-1, (S)-4-((4-(3-(methylsulfonyl)phenyl)-2-phenylpiperazin-1-yl)methyl)-1-(trifluoromethyl)cyclohexan-1-ol]

Structure (SMILES): CC(C)[C@@H]1CN(c2cccc(S(C)(=O)=O)c2)CCN1c1ccc(C(F)(F)F)cn1 [Cpd No 7-35, (R)-2-isopropyl-4-(3-(methylsulfonyl)phenyl)-1-(5-(trifluoromethyl)pyridin-2-yl)piperazine]
Cell LXRα efficacy [1]: 138 (97) %
EC50 ([1]; agonist mode): 138 nM
IC50 [3, 7]: > 10000 nM
EC50 (LXR α LBD protein [4]; agonist mode): 13 nM
FRET LXRα efficacy (LXR α LBD protein [4]; agonist mode): 79%

Structure (SMILES): CC(C)[C@@H]1CN(c2cccc(S(C)(=O)=O)c2)CCN1c1ncc(Cl)cn1 [Cpd No 7-4, (R)-5-chloro-2-(2-isopropyl-4-(3-(methylsulfonyl)phenyl)piperazin-1-yl)pyrimidine]
Cell LXRα efficacy [1]: 1219 (70) %
EC50 ([1]; agonist mode): 1220 nM
IC50 [3, 7]: > 10000 nM
EC50 (LXR α LBD protein [4]; agonist mode): 281 nM
FRET LXRα efficacy (LXR α LBD protein [4]; agonist mode): 76%
